Experimental data taken from patent US12454536B2, “Deuterated 7-(3-(4-(2-([18F]fluoro)ethoxy)phenyl)propyl)-2-(furan-2-yl)-7H- pyrazolo [4,3-e][1,2,4]triazolo[1,5-C]pyrimidine-5-amine derivatives” (HELMHOLTZ-ZENTRUM DRESDEN-ROSSENDORF E.V., priority 2019, dated 2025).

Experiments:
[1] = PET study in healthy CD-1 mice; type: in vivo; conditions: striatum, 15 min p.i., n=3
[2] = In-vivo metabolite study in female CD-1 mice (radio-HPLC); conditions: for intact radiotracer in the brain / intact radiotracer in the plasma: radio-HPLC
Method: In the in-vivo metabolite study in female CD-1 mice after 15 min p.i. in the brain 93% (radio-HPLC, n=3, extraction yield 98%) and in the plasma 79% (radio-HPLC, n=3, extraction yield 83%) of intact radiotracers have been detected.

adenosine A2A receptors = adenosine A2A receptors (Mus musculus, UniProt Q60613); test: Radiotracer affinity (Kd, Bmax); type: binding; conditions: n=5
Sequence of adenosine A2A receptors (Q60613 whole entry): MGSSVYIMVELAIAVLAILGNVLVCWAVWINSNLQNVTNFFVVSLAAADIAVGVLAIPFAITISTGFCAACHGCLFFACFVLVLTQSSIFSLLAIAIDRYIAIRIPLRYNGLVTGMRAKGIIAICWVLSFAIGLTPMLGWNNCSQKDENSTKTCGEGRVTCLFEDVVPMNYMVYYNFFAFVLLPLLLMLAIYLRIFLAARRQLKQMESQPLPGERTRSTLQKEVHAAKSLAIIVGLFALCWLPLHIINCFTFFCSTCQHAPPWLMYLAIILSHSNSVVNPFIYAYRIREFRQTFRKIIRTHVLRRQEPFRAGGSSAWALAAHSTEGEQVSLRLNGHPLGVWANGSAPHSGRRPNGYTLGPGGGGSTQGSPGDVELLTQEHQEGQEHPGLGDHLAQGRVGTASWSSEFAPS

[3] = Stability of radiotracer in solutions and porcine plasma; type: in vitro ADME; conditions: 37° C., one hour
Method: [^18F]FLUDA has shown to be stable in a sodium chloride, PBS, n-octanol solution and in porcine plasma at 37° C. for one hour (PBS=phosphate buffered salt solution). Using the conventional “Shake-flask” method a log D74=2.01±0.07 (n=3) has been established.

striatum (brain slices) = test: In-vitro autoradiography in mouse brain slices; type: binding; conditions: brain slices of mice
hA1 = hA1 (Homo sapiens, UniProt P30542); test: biochemical
Sequence of hA1 (P30542 whole entry): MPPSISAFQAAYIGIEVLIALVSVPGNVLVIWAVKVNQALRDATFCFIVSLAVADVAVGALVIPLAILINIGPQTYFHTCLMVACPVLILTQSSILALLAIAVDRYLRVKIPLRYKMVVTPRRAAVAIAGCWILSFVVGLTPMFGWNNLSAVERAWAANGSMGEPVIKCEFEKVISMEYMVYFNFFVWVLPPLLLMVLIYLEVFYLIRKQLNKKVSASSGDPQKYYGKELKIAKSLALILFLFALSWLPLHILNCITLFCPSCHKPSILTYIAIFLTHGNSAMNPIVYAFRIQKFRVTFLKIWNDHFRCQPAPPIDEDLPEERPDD

hA2A = hA2A (Homo sapiens, UniProt P29274); test: Affinity for human adenosine A2A receptor (Ki); type: binding
Sequence of hA2A (P29274 whole entry): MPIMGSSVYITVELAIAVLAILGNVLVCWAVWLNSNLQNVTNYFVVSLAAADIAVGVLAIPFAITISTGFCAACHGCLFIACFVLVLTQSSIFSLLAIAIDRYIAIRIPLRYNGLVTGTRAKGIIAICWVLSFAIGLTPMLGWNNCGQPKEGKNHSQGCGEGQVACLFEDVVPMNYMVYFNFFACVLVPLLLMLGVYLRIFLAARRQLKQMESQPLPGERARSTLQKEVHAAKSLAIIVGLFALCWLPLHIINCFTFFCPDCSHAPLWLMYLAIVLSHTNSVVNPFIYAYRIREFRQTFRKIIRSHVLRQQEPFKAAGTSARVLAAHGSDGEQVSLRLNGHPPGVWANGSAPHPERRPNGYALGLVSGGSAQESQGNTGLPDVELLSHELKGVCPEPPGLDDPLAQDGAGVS

[4] = female CD-1 mice, 15 min p.i., n=3
[5] = repeated study (Example 6A / Comparison example 1A)
[6] = further tests, taking into account the above data, n=3

| Structure (SMILES) | cerebral uptake SUV [1] | intact radiotracer in the brain [2, 4] [%] | intact radiotracer in the plasma [2, 4] [%] | metabolic stability compared to 18F-labeled compound D ([2]; mouse, in vivo) | intact radiotracer in the brain [2, 5] [%] | intact radiotracer in the plasma [2, 5] [%] | Bmax (adenosine A2A receptors) [fmol/mg] | stability in PBS [3] | stability in n-octanol solution [3] | stability in porcine plasma [3] | stability in sodium chloride solution [3] | change of the radiotracer by A2A-selective ligands (striatum (brain slices)) | enrichment of the radiotracer in the target region (striatum) (striatum (brain slices)) | Ki (hA1; first determination) [nM] | Ki (hA1; [6]) [nM] | Ki (hA2A; first determination) [nM] | Ki (hA2A; [6]) [nM] | Ki (hA1; n=4) [nM] |
| --- | --- | --- | --- | --- | --- | --- | --- | --- | --- | --- | --- | --- | --- | --- | --- | --- | --- | --- |
| [2H]C([2H])([18F])C([2H])([2H])Oc1ccc(CCCn2ncc3c2nc(N)n2nc(-c4ccco4)nc32)cc1 [[^18F]FLUDA, 7-(3-(4-(2-([^18F]fluoro)ethoxy-1,1,2,2-d4)phenyl)propyl)-2-(furan-2-yl)-7H-pyrazolo[4,3-e][1,2,4]triazolo[1,5-c]pyrimidine-5-amine] | 0.8 | 93 | 79 | significantly higher | 100 | 82 | 556 ± 143 | stable | stable | stable | stable | change of the radiotracer by means of A2A-selective ligands | selective enrichment | – | – | – | – | – |
| [2H]C([2H])(F)C([2H])([2H])Oc1ccc(CCCn2ncc3c2nc(N)n2nc(-c4ccco4)nc32)cc1 (single isomer, unassigned) [FLUDA, 7-(3-(4-(2-(fluoro)ethoxy-1,1,2,2-d4)phenyl)propyl)-2-(furan-2-yl)-7H-pyrazolo[4,3-e][1,2,4]triazolo[1,5-c]pyrimidine-5-amine] | – | – | – | – | – | – | – | – | – | – | – | – | – | 767 | > 1000 | 0.609 | 0.74 ± 0.26 | – |
| Nc1nc2c(cnn2CCCc2ccc(OCC[18F])cc2)c2nc(-c3ccco3)nn12 (single isomer, unassigned) [[^18F]D, 7-(3-(4-(2-([^18F]fluoro)ethoxy)phenyl)propyl)-2-(furan-2-yl)-7H-pyrazolo[4,3-e][1,2,4]triazolo[1,5-c]pyrimidine-5-amine, reference compound] | – | 68 | 70 | – | 71 | 41 | – | – | – | – | – | – | – | – | – | – | – | 203 |
